Assay results as given in patent US7138361B2, “Herbicidal heterocycles” (E. I. du Pont de Nemours and Company, priority 2000, dated 2006).

What was measured:
Assay type in all cases: in vivo
[1] = test system: morningglory (Ipomoea hederacea); assay: Test C postemergence
Source text: Seeds of plant species selected from bermudagrass (Cynodon dactylon), Surinam grass (Brachiaria decumbens), cocklebur (Xanthium strumarium), corn (Zea mays), crabgrass (Digitaria sanguinalis), woolly cupgrass (Eriochloa villosa), giant foxtail (Setaria faberii), goosegrass (Eleusine indica), johnsongrass (Sorghum halepense), kochia (Kochia scoparia), lambsquarters (Chenopodium album), morningglory (Ipomoea hederacea), yellow nutsedge (Cyperus esculentus), pigweed (Amaranthus retroflexus), common ragweed (Ambrosia elatior), soybean (Glycine max) and velvetleaf (Abutilon theophrasti) were planted and treated preemergence with test chemicals formulated in a non-phytotoxic solvent mixture which included a surfactant.
At the same time, plants selected from these crop and weed species and also winter barley (Hordeum vulgare), blackgrass (Alopecurus myosuroides), canary grass (Phalaris minor), chickweed (Stellaria media), downy brome (Bromus tectorum), green foxtail (Setaria viridis), Italian ryegrass (Lolium multiflorum), wheat (Triticum aestivum), wild oat (Avena fatua) and windgrass (Apera spica-venti) were treated with postemergence applications of some of the test chemicals formulated in the same manner. Plants ranged in height from 2 to 18 cm (1- to 4-leaf stage) for postemergence treatments. Plant species in the flooded paddy test consisted of rice (Oryza saliva), smallflower flatsedge (Cyperus difformis), duck salad (Heteranthera limosa) and barnyardgrass (Echinochloa crus-galli) grown to the 2-leaf stage for testing. Treated plants and controls were maintained in a greenhouse for 12 to 14 days, after which time all species were compared to controls and visually evaluated. Plant response ratings, summarized in Table C, are based on a scale of 0 to 100 where 0 is no effect and 100 is complete control. A dash (-) response means no test result.

[2] = test system: blackgrass (Alopecurus myosuroides); assay: Test B postemergence
Summary of the method: (§1)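 Preemergence: seeds planted and treated with test chemicals in non-phytotoxic solvent with surfactant; postemergence on plants 2–18 cm (1- to 4-leaf stage). Kept in greenhouse 13–15 days, then visually rated against controls on a 0 (no effect) to 100 (complete control) scale.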

[3] = test system: lambsquarters (Chenopodium album); assay: Test B postemergence
Summary of the method: as §1

[4] = test system: barnyardgrass (Echinochloa crus-galli); assay: Test C flooded paddy test; conditions: for Barnyardgrass plant response rating: Flooded Paddy, scale 0 to 100, 0 no effect, 100 complete control; for Plant response rating, Barnyardgrass: scale 0 to 100 (0 no effect, 100 complete control)
Summary of the method: (§2)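 Response on a 0-to-100 scale (no effect to complete control) was assessed by eye versus controls. Plants had reached 2 leaves when treated in flooded paddy conditions. The assessment took place after 12–14 days of greenhouse growth.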

[5] = test system: smallflower flatsedge (Cyperus difformis); assay: Test C flooded paddy test; conditions: for Flatsedge plant response rating: Flooded Paddy, scale 0 to 100, 0 no effect, 100 complete control; for Plant response rating, Flatsedge: scale 0 to 100 (0 no effect, 100 complete control)
Summary of the method: as §2

[6] = test system: duck salad (Heteranthera limosa); assay: Test C flooded paddy test; conditions: for Ducksalad plant response rating: Flooded Paddy, scale 0 to 100, 0 no effect, 100 complete control; for Plant response rating, Ducksalad: scale 0 to 100 (0 no effect, 100 complete control)
Summary of the method: as §2

rice (Oryza saliva) = assay: Test C flooded paddy test; conditions: for Rice plant response rating: Flooded Paddy, scale 0 to 100, 0 no effect, 100 complete control; for Plant response rating, Rice: scale 0 to 100 (0 no effect, 100 complete control)
Summary of the method: as §2

Sunflower = assay: Test C preemergence; conditions: scale 0 to 100
[7] = Rate 125 g/ha, scale 0 to 100, 0 no effect, 100 complete control
[8] = Rate 250 g/ha, scale 0 to 100 (0 no effect, 100 complete control)
[9] = Rate 125 g/ha, scale 0 (no effect) to 100 (complete control), 13 to 15 days
[10] = Rate 500 g/ha, scale 0 to 100, 0 is no effect, 100 is complete control, 13 to 15 days
[11] = flooded paddy test, Rate 62 g/ha
[12] = flooded paddy test, Rate 125 g/ha
[13] = flooded paddy test, Rate 62 g/ha, visually evaluated after 12 to 14 days, 0 = no effect, 100 = complete control

## CC(C)(C)c1ccn(C2SCN(c3cccc(OC(F)F)c3)C2=O)n1 (centres unmarked) [Compound 36]
[1]; Rate 31 g/ha, scale 0 to 100
  Plant response rating, Morningglory: 0
[1]; [7]
  Plant response rating, Morningglory: 0
[1]; [8]
  Plant response rating, Morningglory: 20
[2]; [9]
  Plant response rating, Blackgrass: 0
[2]; [10]
  Plant response rating, Blackgrass: 0
[3]; [9]
  Plant response rating, Lambsquarters: 90
[3]; [10]
  Plant response rating, Lambsquarters: 100
[4]; Rate 250 g/ha
  Barnyardgrass plant response rating: 100
[4]; Rate 500 g/ha
  Barnyardgrass plant response rating: 100
[4]; [11]
  Plant response rating, Barnyardgrass: 100
[4]; [12]
  Plant response rating, Barnyardgrass: 100
[5]; Rate 250 g/ha
  Flatsedge plant response rating: 100
[5]; Rate 500 g/ha
  Flatsedge plant response rating: 100
[5]; [11]
  Plant response rating, Flatsedge: 100
[5]; [12]
  Plant response rating, Flatsedge: 100
[6]; Rate 250 g/ha
  Ducksalad plant response rating: 100
[6]; Rate 500 g/ha
  Ducksalad plant response rating: 100
[6]; [11]
  Plant response rating, Ducksalad: 80
[6]; [12]
  Plant response rating, Ducksalad: 90
Rice (Oryza saliva); Rate 250 g/ha
  Rice plant response rating: 90
Rice (Oryza saliva); Rate 500 g/ha
  Rice plant response rating: 90
Rice (Oryza saliva); [11]
  Plant response rating, Rice: 30
Rice (Oryza saliva); [12]
  Plant response rating, Rice: 80
Sunflower; Rate 31 g/ha
  Plant response rating, Sunflower: 0

## O=C1C(n2ccc(C3CCC3)n2)SCN1c1cccc(C(F)(F)F)c1 (centres unmarked) [Compound 37]
[1]; Rate 31 g/ha, scale 0 to 100
  Plant response rating, Morningglory: 0
[1]; [7]
  Plant response rating, Morningglory: 0
[1]; [8]
  Plant response rating, Morningglory: 0
[2]; [9]
  Plant response rating, Blackgrass: 0
[2]; [10]
  Plant response rating, Blackgrass: 0
[3]; [9]
  Plant response rating, Lambsquarters: 0
[3]; [10]
  Plant response rating, Lambsquarters: 90
[4]; Rate 250 g/ha
  Barnyardgrass plant response rating: 100
[4]; Rate 500 g/ha
  Barnyardgrass plant response rating: 100
[4]; [11]
  Plant response rating, Barnyardgrass: 70
[4]; [12]
  Plant response rating, Barnyardgrass: 100
[5]; Rate 250 g/ha
  Flatsedge plant response rating: 100
[5]; Rate 500 g/ha
  Flatsedge plant response rating: 100
[5]; [11]
  Plant response rating, Flatsedge: 100
[5]; [12]
  Plant response rating, Flatsedge: 100
[6]; Rate 250 g/ha
  Ducksalad plant response rating: 90
[6]; Rate 500 g/ha
  Ducksalad plant response rating: 100
[6]; [11]
  Plant response rating, Ducksalad: 20
[6]; [12]
  Plant response rating, Ducksalad: 80
Rice (Oryza saliva); Rate 250 g/ha
  Rice plant response rating: 30
Rice (Oryza saliva); Rate 500 g/ha
  Rice plant response rating: 90
Rice (Oryza saliva); [11]
  Plant response rating, Rice: 0
Rice (Oryza saliva); [12]
  Plant response rating, Rice: 0
Sunflower; Rate 31 g/ha
  Plant response rating, Sunflower: 0

## CCC(CC)c1ccn(C2CCN(c3ccc(C)c(OC)c3)C2=O)n1 (centres unmarked) [Compound 81]
[1]; Rate 31 g/ha, scale 0 to 100
  Plant response rating, Morningglory: 50
[1]; Rate 62 g/ha, scale 0 to 100
  Plant response rating, Morningglory: 60
[1]; [7]
  Plant response rating, Morningglory: 80
[1]; [8]
  Plant response rating, Morningglory: 80
[2]; [9]
  Plant response rating, Blackgrass: 0
[2]; [10]
  Plant response rating, Blackgrass: 0
[3]; [9]
  Plant response rating, Lambsquarters: 20
[3]; [10]
  Plant response rating, Lambsquarters: 90
[4]; Rate 250 g/ha
  Barnyardgrass plant response rating: 90
[4]; Rate 500 g/ha
  Barnyardgrass plant response rating: 90
[4]; [11]
  Plant response rating, Barnyardgrass: 20
[4]; [12]
  Plant response rating, Barnyardgrass: 80
[5]; Rate 250 g/ha
  Flatsedge plant response rating: 90
[5]; Rate 500 g/ha
  Flatsedge plant response rating: 90
[5]; [11]
  Plant response rating, Flatsedge: 90
[5]; [12]
  Plant response rating, Flatsedge: 90
[6]; Rate 250 g/ha
  Ducksalad plant response rating: 90
[6]; Rate 500 g/ha
  Ducksalad plant response rating: 100
[6]; [11]
  Plant response rating, Ducksalad: 80
[6]; [12]
  Plant response rating, Ducksalad: 90
Rice (Oryza saliva); Rate 250 g/ha
  Rice plant response rating: 80
Rice (Oryza saliva); Rate 500 g/ha
  Rice plant response rating: 80
Rice (Oryza saliva); [11]
  Plant response rating, Rice: 0
Rice (Oryza saliva); [12]
  Plant response rating, Rice: 0
Sunflower; Rate 31 g/ha
  Plant response rating, Sunflower: 0

## Cc1ccc(N2CCC(n3ccc(C(C)(C)C)n3)C2=O)cc1I (centres unmarked) [Compound 122]
[1]; Rate 62 g/ha, scale 0 to 100
  Plant response rating, Morningglory: 20
[1]; [8]
  Plant response rating, Morningglory: 90
[1]; Rate 500 g/ha, scale 0 to 100 (0 no effect, 100 complete control)
  Plant response rating, Morningglory: 100
[3]; [7]
  Plant response rating, Lambsquarters: 90
[4]; Rate 250 g/ha
  Barnyardgrass plant response rating: 0
[4]; Rate 500 g/ha
  Barnyardgrass plant response rating: 100
[4]; [11]
  Plant response rating, Barnyardgrass: 0
[4]; [12]
  Plant response rating, Barnyardgrass: 0
[5]; Rate 250 g/ha
  Flatsedge plant response rating: 80
[5]; Rate 500 g/ha
  Flatsedge plant response rating: 100
[5]; [11]
  Plant response rating, Flatsedge: 0
[5]; [12]
  Plant response rating, Flatsedge: 80
[6]; Rate 250 g/ha
  Ducksalad plant response rating: 30
[6]; Rate 500 g/ha
  Ducksalad plant response rating: 60
[6]; [11]
  Plant response rating, Ducksalad: 20
[6]; [12]
  Plant response rating, Ducksalad: 20
Rice (Oryza saliva); Rate 250 g/ha
  Rice plant response rating: 0
Rice (Oryza saliva); Rate 500 g/ha
  Rice plant response rating: 0
Rice (Oryza saliva); [11]
  Plant response rating, Rice: 0
Rice (Oryza saliva); [12]
  Plant response rating, Rice: 0
Sunflower; Rate 62 g/ha
  Plant response rating, Sunflower: 0

## CCOc1cccc(N2CCC(n3ccc(C(C)C)n3)C2=O)c1 (centres unmarked) [Compound 128]
[2]; [7]
  Plant response rating, Blackgrass: 0
[2]; [10]
  Plant response rating, Blackgrass: 0
[3]; [7]
  Plant response rating, Lambsquarters: 0
[4]; Rate 250 g/ha
  Barnyardgrass plant response rating: 100
[4]; Rate 500 g/ha
  Barnyardgrass plant response rating: 100
[4]; [11]
  Plant response rating, Barnyardgrass: 40
[4]; [12]
  Plant response rating, Barnyardgrass: 100
[5]; Rate 250 g/ha
  Flatsedge plant response rating: 100
[5]; Rate 500 g/ha
  Flatsedge plant response rating: 100
[5]; [11]
  Plant response rating, Flatsedge: 90
[5]; [12]
  Plant response rating, Flatsedge: 90
[6]; Rate 250 g/ha
  Ducksalad plant response rating: 100
[6]; Rate 500 g/ha
  Ducksalad plant response rating: 100
[6]; [11]
  Plant response rating, Ducksalad: 60
[6]; [12]
  Plant response rating, Ducksalad: 70
Rice (Oryza saliva); Rate 250 g/ha
  Rice plant response rating: 30
Rice (Oryza saliva); Rate 500 g/ha
  Rice plant response rating: 70
Rice (Oryza saliva); [11]
  Plant response rating, Rice: 0
Rice (Oryza saliva); [12]
  Plant response rating, Rice: 30
Sunflower; Rate 62 g/ha
  Plant response rating, Sunflower: 20

## CCCC(C)c1ccn(C2CCN(c3cccc(OCC)c3)C2=O)n1 (centres unmarked) [Compound 129]
[2]; [7]
  Plant response rating, Blackgrass: 0
[2]; [10]
  Plant response rating, Blackgrass: 0
[3]; [7]
  Plant response rating, Lambsquarters: 100
[4]; Rate 250 g/ha
  Barnyardgrass plant response rating: 80
[4]; Rate 500 g/ha
  Barnyardgrass plant response rating: 100
[4]; [12]
  Plant response rating, Barnyardgrass: 50
[4]; [13]
  Plant response rating (scale 0 to 100), Barnyardgrass: 30
[5]; Rate 250 g/ha
  Flatsedge plant response rating: 90
[5]; Rate 500 g/ha
  Flatsedge plant response rating: 90
[5]; [12]
  Plant response rating, Flatsedge: 80
[5]; [13]
  Plant response rating (scale 0 to 100), Flatsedge: 70
[6]; Rate 250 g/ha
  Ducksalad plant response rating: 90
[6]; Rate 500 g/ha
  Ducksalad plant response rating: 90
[6]; [12]
  Plant response rating, Ducksalad: 30
[6]; [13]
  Plant response rating (scale 0 to 100), Ducksalad: 20
Rice (Oryza saliva); Rate 250 g/ha
  Rice plant response rating: 0
Rice (Oryza saliva); Rate 500 g/ha
  Rice plant response rating: 35
Rice (Oryza saliva); [12]
  Plant response rating, Rice: 0
Rice (Oryza saliva); [13]
  Plant response rating (scale 0 to 100), Rice: 0
Sunflower; Rate 62 g/ha
  Plant response rating, Sunflower: 0
